Results on 1 molecule are retold here after patent publication US20190247376A1, “NICOTINIC ACETYLCHOLINE RECEPTOR AGONIST ATTENUATES ILC2-DEPENDENT AIRWAY HYPERREACTIVITY” (University of Southern California, priority 2016, published 2019).

In one series the target is α4β2 subtype of nAChR (Homo sapiens, UniProt P17787+P43681). The note with it: cited from earlier work.
The next series addresses α7 subtype of nAChR (Homo sapiens, UniProt P36544). The note with it: cited from earlier work.
The subject of another series is lung ILC2s. Nature of the series: In vitro stimulation of murine lung ILC2s, IL-5 and IL-13 by ELISA, viability by 7-AAD. It counts as cell-based, mouse. As for the experimental part: FIGS. 2A-2C: α7nAChR agonist suppresses IL-5 and IL-13 production from ILC2s in vitro. BALB/cByJ mice were intranasally challenged with recombinant mouse IL-33 on days 1-3. On day 4 lung ILC2s were isolated and re-stimulated with rIL-33, rIL-2 and rIL-7 with or without α7nAChR agonist (2.5, 10 and 50 μg mL^−1) for 24 hours (FIG. 2A) or 48 hours (FIG. 2B). The levels of IL-5 and IL-13 were measured by ELISA. The viability of cultured ILC2s were assessed by staining with 7-AAD. (FIG. 2C) BALB/cByJ mice were intranasally challenged with recombinant mouse IL-33 on days 1-3, with or without α7nAChR agonist administration. On day 4 lung ILC2s were isolated and the number of IL-5^+ and IL-13^+ cells per 40×10^4 ILC2s were quantified. Values are expressed as the mean±SEM of five experiments (n=5; Student's t test *, p<0.05; **p<0.01).
FIG. 10: α7nAChR agonist suppresses cytokine production in ILC2s. Lung ILC2s were sorted from naïve BALB/cByJ mice and cultured with rm-IL-25 (10 ng mL−1) in the presence or absence of α7nAChR (10 μg mL−1) agonist for 24 hours. The levels of IL-5 and IL-13 were measured by ELISA. Data are representative of at least two independent experiments and are presented as means±SEM (n=4; Student's t test *, p<0.05).
Nicotine is known as a major constituent of cigarette smoke, which causes impairment of lung function and exacerbation of asthma. […] To address this question quantitatively, pulmonary ILC2s were isolated and cultured with increasing doses (2.5, 10 and 50 μg mL^−1) of α7nAChR agonist in the presence of rm-IL-33, rm-IL-2 and rm-IL-7. […] To verify that the actions of the agonist were not due to a reduction in the number of ILC2s, Applicants administered IL-33 to mice in vivo with or without agonist treatment, and then quantified the number of IL-5^+ and IL-13^+ ILC2s within a determined number of ILC2s (FIG. 2C). […]
Murine ILC2s were isolated from BALB/cByJ mice to >95% purity using the FACSARIA III cell sorter. […] Levels of cytokines were measured by ELISA (eBioscience), according to the manufacturer's instructions.
For orientation: In an ELISA, binding on a coated surface is turned into a signal by an enzyme label.

Sequence of α4β2 subtype of nAChR (P43681 29-627 limits assumed): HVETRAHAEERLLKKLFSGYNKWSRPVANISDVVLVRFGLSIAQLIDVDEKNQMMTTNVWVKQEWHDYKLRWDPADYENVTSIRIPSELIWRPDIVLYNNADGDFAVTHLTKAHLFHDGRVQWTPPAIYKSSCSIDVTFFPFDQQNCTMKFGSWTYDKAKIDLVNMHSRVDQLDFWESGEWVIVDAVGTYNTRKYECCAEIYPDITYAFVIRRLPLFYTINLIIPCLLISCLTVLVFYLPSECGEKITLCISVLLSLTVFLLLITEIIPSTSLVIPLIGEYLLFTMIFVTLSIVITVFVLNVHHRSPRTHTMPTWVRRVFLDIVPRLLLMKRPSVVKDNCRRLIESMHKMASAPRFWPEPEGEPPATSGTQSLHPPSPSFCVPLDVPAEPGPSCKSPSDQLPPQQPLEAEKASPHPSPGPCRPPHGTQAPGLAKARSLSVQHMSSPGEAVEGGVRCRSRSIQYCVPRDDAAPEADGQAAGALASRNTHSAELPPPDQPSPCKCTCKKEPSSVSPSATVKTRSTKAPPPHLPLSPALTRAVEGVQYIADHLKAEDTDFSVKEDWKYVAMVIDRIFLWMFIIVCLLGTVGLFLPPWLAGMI
Sequence of α4β2 subtype of nAChR (P17787 26-502): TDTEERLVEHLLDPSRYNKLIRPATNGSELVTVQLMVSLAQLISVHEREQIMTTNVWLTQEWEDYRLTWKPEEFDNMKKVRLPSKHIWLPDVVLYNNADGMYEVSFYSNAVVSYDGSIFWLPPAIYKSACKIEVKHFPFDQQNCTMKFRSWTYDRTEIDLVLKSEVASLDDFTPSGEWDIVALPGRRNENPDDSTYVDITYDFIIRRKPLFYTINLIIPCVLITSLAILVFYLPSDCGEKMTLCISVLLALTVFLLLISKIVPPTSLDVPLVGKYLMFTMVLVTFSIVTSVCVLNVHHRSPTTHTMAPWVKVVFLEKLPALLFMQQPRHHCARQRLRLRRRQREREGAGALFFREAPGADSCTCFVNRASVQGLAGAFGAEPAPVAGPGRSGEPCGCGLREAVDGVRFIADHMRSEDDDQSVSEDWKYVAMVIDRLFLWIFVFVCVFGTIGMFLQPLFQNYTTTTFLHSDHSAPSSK
Sequence of α7 subtype of nAChR (P36544 23-502): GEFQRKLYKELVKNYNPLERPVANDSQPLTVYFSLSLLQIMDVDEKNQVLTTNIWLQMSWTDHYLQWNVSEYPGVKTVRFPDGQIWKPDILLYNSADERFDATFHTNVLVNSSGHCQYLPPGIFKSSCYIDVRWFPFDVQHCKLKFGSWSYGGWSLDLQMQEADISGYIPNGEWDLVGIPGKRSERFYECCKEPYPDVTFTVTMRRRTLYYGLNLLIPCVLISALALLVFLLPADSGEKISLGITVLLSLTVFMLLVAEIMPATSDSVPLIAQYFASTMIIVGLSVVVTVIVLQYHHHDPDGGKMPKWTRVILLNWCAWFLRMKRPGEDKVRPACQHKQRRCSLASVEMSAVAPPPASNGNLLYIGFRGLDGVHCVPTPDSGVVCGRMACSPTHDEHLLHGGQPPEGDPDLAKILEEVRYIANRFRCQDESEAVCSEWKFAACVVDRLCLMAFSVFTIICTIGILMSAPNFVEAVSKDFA

As to `COc1ccc(/C=C2\CCCN=C2c2cccnc2)c(OC)c1` [GTS-21, 3-[(3E)-3-[(2,4-dimethoxyphenyl)methylidene]-5,6-dihydro-4H-pyridin-2-yl]pyridine], on α4β2 subtype of nAChR, the “binding to the α4β2 subtype” value was “binds”. In addition, at α7 subtype of nAChR, the “activation of nAChR subtypes” value is reported as “activates only the α7 subtype to a significant extent”. Besides, in the series with lung ILC2s (agonist 2.5, 10 and 50 μg mL−1, 24 or 48 hours), the “viability of cultured ILC2s (7-AAD)” value is “independent of cell viability except at the highest tested dose”. Besides, in the series on lung ILC2s (rm-IL-25 10 ng mL−1, agonist 10 μg mL−1, 24 hours), the “IL-25-induced cytokine secretion (IL-5 and IL-13)” value is given as “susceptible to suppression”. Further, the “IL-5 and IL-13 production from ILC2s (ELISA)” value in the series with lung ILC2s (rm-IL-33, rm-IL-2, rm-IL-7, agonist 2.5, 10 and 50 μg mL−1, 24 or 48 hours) was “dose-dependent anti-inflammatory effects”.
